Measurements published in article PMC6446049 (Alzheimer's & Dementia : Translational Research & Clinical …, 2019).

What was measured:
[1] = tested on: healthy elderly subjects (scopolamine challenge); assay: Saccadic eye movements in scopolamine challenge; format: in vivo, human; conditions: for Saccadic inaccuracy / Saccadic reaction time: vs placebo (95% CI), scopolamine 0.3 mg i.v.
[2] = tested on: healthy elderly subjects (scopolamine challenge); assay: Safety assessment: adverse events, vital signs, ECG, laboratory; format: in vivo, human; conditions: scopolamine 0.3 mg i.v.
[3] = tested on: healthy elderly subjects (scopolamine challenge); assay: N-back test in scopolamine challenge; format: in vivo, human; conditions: for N-back, 0-back accuracy / N-back, 0-back reaction time / N-back, 1-back accuracy / N-back, 2-back accuracy / N-back, 2-back reaction time: vs placebo (95% CI), scopolamine 0.3 mg i.v.
[4] = tested on: healthy elderly subjects (scopolamine challenge); assay: Adaptive tracking; format: in vivo, human; conditions: for Adaptive tracking: vs placebo (95% CI), scopolamine 0.3 mg i.v.
[5] = Plasma pharmacokinetics; conditions: noncompartmental analysis
[6] = tested on: healthy volunteers; conditions: single oral doses; cited from earlier work
[7] = tested on: patients with mild-to-moderate Alzheimer's disease; conditions: cited from earlier work
[8] = tested on: healthy subjects; conditions: scopolamine alone, previous study; cited from earlier work
[9] = tested on: healthy elderly subjects (scopolamine challenge); assay: Simple reaction time task in scopolamine challenge; format: in vivo, human; conditions: scopolamine alone 0.3 mg i.v.
[10] = tested on: healthy elderly subjects (scopolamine challenge); assay: Pharmaco-electroencephalography in scopolamine challenge; format: in vivo, human; conditions: scopolamine alone 0.3 mg i.v.
[11] = tested on: healthy volunteers; conditions: 0.5 mg intravenously; healthy young volunteers; cited from earlier work
[12] = tested on: healthy elderly subjects (scopolamine challenge); assay: Body sway meter; format: in vivo, human; conditions: scopolamine alone 0.3 mg i.v.
[13] = DPZ 2.5 mg + EVP-6124 placebo, N 11
[14] = DPZ 5.0 mg + EVP-6124 placebo, N 10
[15] = DPZ placebo + EVP-6124 0.3 mg, N 12
[16] = DPZ placebo + EVP-6124 1 mg, N 11
[17] = DPZ placebo + EVP-6124 2 mg, N 12
[18] = DPZ placebo + EVP-6124 4 mg, N 12

COc1cc2c(cc1OC)C(=O)C(CC1CCN(Cc3ccccc3)CC1)C2 (centres unmarked) [DPZ, donepezil, reference compound]
Saccadic inaccuracy ([1]; DPZ 2.5 mg + EVP-6124 placebo): −1.4 (−2.7, −0.1) P = .0311% | Saccadic reaction time ([1]; DPZ 2.5 mg + EVP-6124 placebo): −4 (−20, 11) P = .5539 ms | Saccadic inaccuracy ([1]; DPZ 5 mg + EVP-placebo): 0.0 (−0.9, 1.0) P = .9433% | Saccadic reaction time ([1]; DPZ 5 mg + EVP-placebo): −11 (−20, −2) P = .0190 ms | Headache, treatment-related adverse event, subjects n (%) [2, 13]: 1 (9.1%) | Somnolence, treatment-related adverse event, subjects n (%) [2, 13]: 7 (63.6%) | Disturbance in attention, treatment-related adverse event, subjects n (%) [2, 14]: 1 (10.0%) | Dizziness, treatment-related adverse event, subjects n (%) [2, 14]: 6 (60.0%) | Dry mouth, treatment-related adverse event, subjects n (%) [2, 14]: 6 (60.0%) | Headache, treatment-related adverse event, subjects n (%) [2, 14]: 1 (10.0%) | Somnolence, treatment-related adverse event, subjects n (%) [2, 14]: 6 (60.0%) | N-back, 0-back accuracy ([3]; DPZ 2.5 mg + EVP-6124 placebo): 0.03 (−0.05, 0.11) P = .4512% | N-back, 0-back reaction time ([3]; DPZ 2.5 mg + EVP-6124 placebo): −24 (−48, 1) P = .0615 ms | N-back, 1-back accuracy ([3]; DPZ 2.5 mg + EVP-6124 placebo): −0.00 (−0.12, 0.11) P = .9598% | N-back, 2-back accuracy ([3]; DPZ 2.5 mg + EVP-6124 placebo): 0.04 (−0.08, 0.17) P = .5034% | N-back, 2-back reaction time ([3]; DPZ 2.5 mg + EVP-6124 placebo): −27 (−70, 16) P = .2115 ms | N-back, 0-back accuracy ([3]; DPZ 5 mg + EVP-placebo): 0.04 (−0.02, 0.10) P = .1614% | N-back, 0-back reaction time ([3]; DPZ 5 mg + EVP-placebo): −18 (−36, −1) P = .0386 ms | N-back, 1-back accuracy ([3]; DPZ 5 mg + EVP-placebo): 0.03 (−0.05, 0.11) P = .4286% | N-back, 2-back accuracy ([3]; DPZ 5 mg + EVP-placebo): 0.02 (−0.08, 0.11) P = .7469% | N-back, 2-back reaction time ([3]; DPZ 5 mg + EVP-placebo): 35 (−1, 70) P = .0541 ms | Adaptive tracking ([4]; DPZ 2.5 mg + EVP-6124 placebo): 1.49 (0.20, 2.77) P = .0247% | Adaptive tracking ([4]; DPZ 5 mg + EVP-placebo): 0.72 (−0.76, 2.20) P = .3297%

O=C(N[C@H]1CN2CCC1CC2)c1cc2cccc(Cl)c2s1 [EVP-6124]
EVP-6124 pharmacokinetic parameters with or without donepezil [5]: similar | dose at which effects on the Digit Symbol Substitution Test were most prevalent [6]: 20 mg | reason why phase III trials were halted in 2015 [7]: gastrointestinal adverse events | Saccadic inaccuracy ([1]; DPZ placebo + EVP-6124 0.3 mg): 0.6 (−0.2, 1.4) P = .1224% | Saccadic reaction time ([1]; DPZ placebo + EVP-6124 0.3 mg): −4 (−13, 5) P = .4018 ms | Saccadic inaccuracy ([1]; DPZ placebo + EVP-6124 1 mg): 0.0 (−0.8, 0.8) P = .9525% | Saccadic reaction time ([1]; DPZ placebo + EVP-6124 1 mg): −2 (−12, 7) P = .5871 ms | Saccadic inaccuracy ([1]; DPZ placebo + EVP-6124 2 mg): −0.1 (−0.9, 0.6) P = .7196% | Saccadic reaction time ([1]; DPZ placebo + EVP-6124 2 mg): −3 (−12, 6) P = .4605 ms | Saccadic inaccuracy ([1]; DPZ placebo + EVP-6124 4 mg): 0.3 (−0.5, 1.1) P = .4213% | Saccadic reaction time ([1]; DPZ placebo + EVP-6124 4 mg): 3 (−6, 11) P = .5707 ms | Disturbance in attention, treatment-related adverse event, subjects n (%) [2, 15]: 2 (16.7%) | Dizziness, treatment-related adverse event, subjects n (%) [2, 15]: 6 (50.0%) | Dry mouth, treatment-related adverse event, subjects n (%) [2, 15]: 8 (66.7%) | Gait disturbance, treatment-related adverse event, subjects n (%) [2, 15]: 1 (8.3%) | Headache, treatment-related adverse event, subjects n (%) [2, 15]: 1 (8.3%) | Somnolence, treatment-related adverse event, subjects n (%) [2, 15]: 6 (50.0%) | Disturbance in attention, treatment-related adverse event, subjects n (%) [2, 16]: 2 (18.2%) | Dizziness, treatment-related adverse event, subjects n (%) [2, 16]: 3 (27.3%) | Gait disturbance, treatment-related adverse event, subjects n (%) [2, 16]: 1 (9.1%) | Headache, treatment-related adverse event, subjects n (%) [2, 16]: 3 (27.3%) | Somnolence, treatment-related adverse event, subjects n (%) [2, 16]: 5 (45.5%) | Disturbance in attention, treatment-related adverse event, subjects n (%) [2, 17]: 1 (8.3%) | Dizziness, treatment-related adverse event, subjects n (%) [2, 17]: 4 (33.3%) | Dry mouth, treatment-related adverse event, subjects n (%) [2, 17]: 10 (83.3%) | Gait disturbance, treatment-related adverse event, subjects n (%) [2, 17]: 1 (8.3%) | Somnolence, treatment-related adverse event, subjects n (%) [2, 17]: 8 (66.7%) | Disturbance in attention, treatment-related adverse event, subjects n (%) [2, 18]: 2 (16.7%) | Dizziness, treatment-related adverse event, subjects n (%) [2, 18]: 5 (41.7%) | Dry mouth, treatment-related adverse event, subjects n (%) [2, 18]: 10 (83.3%) | Gait disturbance, treatment-related adverse event, subjects n (%) [2, 18]: 3 (25.0%) | Headache, treatment-related adverse event, subjects n (%) [2, 18]: 1 (8.3%) | Somnolence, treatment-related adverse event, subjects n (%) [2, 18]: 7 (58.3%) | N-back, 0-back accuracy ([3]; DPZ placebo + EVP-6124 0.3 mg): 0.02 (−0.04, 0.08) P = .5073% | N-back, 0-back reaction time ([3]; DPZ placebo + EVP-6124 0.3 mg): 8 (−12, 29) P = .4004 ms | N-back, 1-back accuracy ([3]; DPZ placebo + EVP-6124 0.3 mg): 0.02 (−0.05, 0.10) P = .5558% | N-back, 2-back accuracy ([3]; DPZ placebo + EVP-6124 0.3 mg): −0.02 (−0.11, 0.07) P = .6878% | N-back, 2-back reaction time ([3]; DPZ placebo + EVP-6124 0.3 mg): −5 (−36, 25) P = .7210 ms | N-back, 0-back accuracy ([3]; DPZ placebo + EVP-6124 1 mg): 0.04 (−0.03, 0.10) P = .2318% | N-back, 0-back reaction time ([3]; DPZ placebo + EVP-6124 1 mg): −17 (−37, 4) P = .1085 ms | N-back, 1-back accuracy ([3]; DPZ placebo + EVP-6124 1 mg): 0.04 (−0.04, 0.12) P = .3062% | N-back, 2-back accuracy ([3]; DPZ placebo + EVP-6124 1 mg): 0.01 (−0.08, 0.10) P = .8796% | N-back, 2-back reaction time ([3]; DPZ placebo + EVP-6124 1 mg): −3 (−33, 28) P = .8693 ms | N-back, 0-back accuracy ([3]; DPZ placebo + EVP-6124 2 mg): 0.05 (−0.01, 0.11) P = .0818% | N-back, 0-back reaction time ([3]; DPZ placebo + EVP-6124 2 mg): −5 (−25, 15) P = .6209 ms | N-back, 2-back accuracy ([3]; DPZ placebo + EVP-6124 2 mg): 0.03 (−0.06, 0.13) P = .4557% | N-back, 2-back reaction time ([3]; DPZ placebo + EVP-6124 2 mg): 1 (−29, 31) P = .9305 ms | N-back, 0-back reaction time ([3]; DPZ placebo + EVP-6124 4 mg): −16 (−36, 4) P = .1151 ms | N-back, 1-back accuracy ([3]; DPZ placebo + EVP-6124 4 mg): 0.05 (−0.03, 0.12) P = .2385% | N-back, 2-back accuracy ([3]; DPZ placebo + EVP-6124 4 mg): −0.02 (−0.11, 0.07) P = .7181% | N-back, 2-back reaction time ([3]; DPZ placebo + EVP-6124 4 mg): −8 (−39, 22) P = .5733 ms | Adaptive tracking ([4]; DPZ placebo + EVP-6124 0.3 mg): −1.23 (−2.80, 0.34) P = .1200% | Adaptive tracking ([4]; DPZ placebo + EVP-6124 1 mg): 0.03 (−1.56, 1.63) P = .9671% | Adaptive tracking ([4]; DPZ placebo + EVP-6124 2 mg): −0.83 (−2.33, 0.67) P = .2691% | Adaptive tracking ([4]; DPZ placebo + EVP-6124 4 mg): −0.26 (−1.76, 1.24) P = .7281%

CN1[C@@H]2C[C@@H](OC(=O)[C@H](CO)c3ccccc3)C[C@H]1[C@@H]1O[C@@H]12 [scopolamine]
performance on saccadic eye movements ([1]; scopolamine alone 0.3 mg i.v.): worsened performance | reduction of adaptive tracking scores [8]: 42% | performance on SRT [9]: worsened performance | EEG alpha frequency [10]: decrease | EEG beta frequency [10]: did not affect | EEG delta frequency [10]: increase | EEG theta frequency [10]: did not affect | cognitive effect of scopolamine [11]: significant cognitive deficits | performance on N-back ([3]; scopolamine alone 0.3 mg i.v.): worsened performance | performance on adaptive tracking ([4]; scopolamine alone 0.3 mg i.v.): worsened performance | performance on body sway [12]: worsened performance
